# Measured values as given in patent US6576811B1, “Transgenic rat with human normal type c-Ha-ras gene” (National Cancer Center Research Institute, priority 1998, dated 2003).
# Where “and” joins values, the source holds several entries; their conditions need not be identical. Equal entries are not always repeated. Marks after values point to notes of the source that are not given here.
# Key:
# Hras128 rats [1] = assay: Effects of d-limonene on MNU-induced mammary carcinogenesis in Hras128 transgenic rats; format: in vivo, rat; conditions: 5% d-limonene, 9 rats
# [2] = tested on: wild type rats (non Tg rats); assay: DMBA-induced mammary carcinomas in wild type rats; format: in vivo, rat
# Text: (§3) Well established mammary carcinogens, such as 7,14-dimethylbenz[a]anthracene (DMBA) and 2-amino-1-methyl-6-phenylimidazo[4,5-]pyridlne (PhIP) were given to the Hras128 rats in the same manner as in previous reports.
# (§4) The number of tumor indicates number of lesions per rat and the sizes of the tumors indicates their diameter (mm).
# [3] = tested on: human c-Ha-ras proto-oncogene (transgene); assay: Mutation analysis (RFLP, PCR-SSCP) of the transgene in carcinogen-induced tumors
# Text: Single-stranded DNA confirmation polymorphism (SSCP) analysis is able to be performed according to the followings; T. Sekiya. Protein, Nucleic Acid, Enzyme, vol.
# Possible mutations in exons 1 to 4 of the human Ha-ras proto-oncogene and exons 1 and 2 of the endogenous gene were examined by PCR-SSCP analysis.
# RFLP analysis is able to perform according to the followings; Nagase, et al., Protein, Nucleic Acid, Enzyme, vol.
# [4] = tested on: endogenous Ha-ras gene (rat); assay: Mutation analysis (PCR-SSCP) of the endogenous Ha-ras gene in carcinogen-induced tumors; conditions: for Endogenous (rat) exon 1 mutations, number of tumors / Endogenous (rat) exon 2 mutations, number of tumors: DMBA-induced mammary carcinomas
# Text: Single-stranded DNA confirmation polymorphism (SSCP) analysis is able to be performed according to the followings; T. Sekiya. Protein, Nucleic Acid, Enzyme, vol. 41, No. 5, 539, 1996.
# Possible mutations in exons 1 to 4 of the human Ha-ras proto-oncogene and exons 1 and 2 of the endogenous gene were examined by PCR-SSCP analysis. Using human or rat specific primers, only two bands appeared on the gals. With common primers (cHras21F and cHras21R) for Ha-ras exon 2 of both man and rats, four bands were detected. Human or rat specific bands were identified by signals from normal DNA of the transgenic and non-transgenic rats. DNA from T24 having a mutation in human Ha-ras of codon 12, GGC to GTC and that from pSK2 having a mutation in the codon 61, CAG to CTG, gave clearly mobility shifted bands in the assays (FIG. 4). However, a GGC to GAC mutation of the transgene enriched by PCR after RFLP analysis as described below, which was frequently observed in tumors induced by MNU in human Ha-ras proto-oncogene transgenic mice, could not be detected by SSCP -PCR analysis. In 44 tumors from Hras128 transgenic rats treated with MNU, mutations were not detected in exons 1 to 4 of the introduced human and endogenous c-Ha-ras genes under any of four SSCP conditions (at 4 or 20° C., with or without 5% glycerol) (Table 1). In contrast, a relatively high frequency (6 of 21 tumors of non-transgenic rats (28.6%) of GGA to GAA mutations in codon 12 of the endogenous Ha-ras gene was detected in mammary carcinomas of non-transgenic using PCR-SSCP analysis followed by direct sequencing (Table 1).
# Hras128 rats [5] = assay: DMBA-induced mammary carcinomas in Hras128 rats
# Text: as §3, §4
# Hras102 rats = assay: MNU-induced mammary carcinogenesis in 102-strain transgenic rats; format: in vivo, rat
# Experimental: (§1) MNU, at a dose of 50 mg/kg, was intravenously injected into Hras128 and wild type rats, at 50 days old, to perform histopathological examination of the incidence of mammary tumor and to screen the presence or absence of any point mutation of the transgene and endogenous c-Ha-ras gene.
# (§2) Mammary tumor became palpable in the Hras128 strain rats, 5 weeks after MNU administration, and then multiple adenocarcinoma developed in all (100%) of the mammary glands of all the transgenic rats at week 8, but that in the wild type rats only 29.2% even at week 8 (see Table 1 and FIG. 2). In 102-strain rats, multiple adenocarcinoma was observed 16 weeks after MNU administration.
# [6] = tested on: wild type rats (non Tg rats); assay: MNU-induced mammary carcinogenesis in wild type rats (102 line); format: in vivo, rat; conditions: strain 102, 'MNU Treatment' cell '—' (probably wild rats), week 18, 13 rats
# Experimental: as §1, §2
# Hras128 rats [7] = assay: MNU-induced mammary carcinogenesis in Hras128 transgenic rats; format: in vivo, rat
# Experimental: as §1, §2
# [8] = tested on: wild type rats (non Tg rats); assay: MNU-induced mammary carcinogenesis in wild type rats (128 line); format: in vivo, rat; conditions: strain 128, 'MNU Treatment' cell '—' (wild type rats per text), week 8, 24 rats
# Experimental: as §1, §2
# [9] = DMBA-induced mammary carcinomas, Hras128, 20 tumors examined
# [10] = DMBA-induced mammary carcinomas, Hras128, 20 tumors examined, RFLP
# [11] = Hras128, mammary carcinomas, 14 rats
# [12] = strain 102, MNU performed, week 18 after injection, 23 rats
# [13] = MNU-induced mammary tumors, Hras128, 44 tumors examined
# [14] = MNU-induced mammary tumors, Hras128, 44 tumors examined, SSCP
# [15] = strain 128, MNU performed, 50 mg/kg i.v., week 8 after injection, 22 rats
compound,measurement,setting,value
"C=C(C)[C@H]1CC=C(C)CC1 [d-Limonene, d-limonene]",Average size of tumors (mm),"Hras128 rats [1]; basal diet control 10.7 ± 7.34, P < 0.01",8.23 ± 4.88 ^a mm
same,No. of tumors/rat,Hras128 rats [1]; basal diet control 26.4 ± 8.52,19.4 ± 6.71
same,Average size of tumors (mm^3),"Hras128 rats [1]; basal diet control 637.7 ± 1669, P < 0.01",269.5 ± 735.5 ^a mm^3
Cc1c2ccccc2c(C)c2c1ccc1ccccc12 [DMBA],Tumor size (diameter),[2],13.4 ± 8.20 mm
same,No. of tumor-bearing rats,[2]; 12 rats,4
same,No. of tumor-bearing rats (%),[2]; 12 rats,33.3%
same,No. of tumors/rat,[2]; 12 rats,0.83 ± 1.75
same,"Transgene codon 12 mutations, %",[3]; [9],30%
same,"Transgene codon 61 mutations, %",[3]; [9],35%
same,"Transgene mutations total, %",[3]; [9],60%
same,"Transgene mutations total, number of tumors",[3]; [9],12
same,"Transgene codon 12 mutations, number of tumors",[3]; [10],6/20 and 6
same,"Transgene codon 61 mutations, number of tumors",[3]; [10],7/20 and 7
same,"Endogenous (rat) exon 1 mutations, number of tumors","[4]; Hras128, 20 tumors examined",0
same,"Endogenous (rat) exon 2 mutations, number of tumors","[4]; Hras128, 20 tumors examined",0
same,"Endogenous (rat) exon 1 mutations, number of tumors","[4]; Wild, 7 tumors examined",0
same,"Endogenous (rat) exon 2 mutations, number of tumors","[4]; Wild, 7 tumors examined",0
same,Tumor size (diameter),"Hras128 rats [5]; Hras128, mammary carcinomas",12.6 ± 9.22 mm
same,No. of tumor-bearing rats,Hras128 rats [5]; [11],13
same,No. of tumor-bearing rats (%),Hras128 rats [5]; [11],92.9%
same,No. of tumors/rat,Hras128 rats [5]; [11],9.39 ± 9.79^b
same,Sensitivity of the Hras128 rat to DMBA,Hras128 rats [5]; mammary carcinogenesis,very sensitive
"CN(N=O)C(N)=O [MNU, N-methyl-N-nitrosourea]","Multiple adenocarcinoma observed, time after MNU administration","Hras102 rats; 102-strain rats, MNU 50 mg/kg i.v.",16 weeks
same,No. of tumor-bearing rats,Hras102 rats; [12],20
same,No. of tumor-bearing rats (%),Hras102 rats; [12],(87.0) %
same,No. of tumor/rat,Hras102 rats; [12],5.83 ± 5.31
same,No. of tumor-bearing rats,[6],10
same,No. of tumor-bearing rats (%),[6],(76.9) %
same,No. of tumor/rat,[6],3.00 ± 2.86
same,"Tumors with transgene exon 2 (codon 61) mutation, number",[3]; [13],0
same,"Tumors with transgene exon 3 mutation, number",[3]; [13],0
same,"Tumors with transgene exon 4 mutation, number",[3]; [13],0
same,"Tumors with endogenous (rat) exon 1 mutation, number",[4]; [14],0
same,"Tumors with endogenous (rat) exon 2 mutation, number",[4]; [14],0
same,"Tumors with endogenous (rat) exon 2 mutation, number","[4]; MNU-induced mammary tumors, Wild, 21 tumors examined, SSCP",0
same,"Mammary tumor became palpable, time after MNU administration","Hras128 rats [7]; Hras128 rats, MNU 50 mg/kg i.v. at 50 days old",5 weeks
same,Sensitivity of Tg rats to MNU-induced mammary carcinogenesis,Hras128 rats [7]; Tg rats vs wild type,very sensitive
same,No. of tumor-bearing rats,Hras128 rats [7]; [15],22
same,No. of tumor/rat,Hras128 rats [7]; [15],14.0 ± 6.42
same,No. of tumor-bearing rats,[8],7
same,No. of tumor/rat,[8],0.46 ± 0.93
